In brackets after ≈: the same amount, converted by molar mass. Several values for one entry are separate records, joined by “and”; a condition that tells them apart may be missing. Identical values can stand only once. Like-named read-outs stand apart in the source and are kept apart here.
Key:
[1] = DPPH antioxidant assay (radical scavenging); assay type: biochemical; conditions: mean ± SD (n = 3)
In short: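 Compounds, starting at 200 μg/mL, were mixed with 0.2 mM methanolic DPPH and incubated 30 min in the dark at 25 °C; absorbance was read at 515 nm. % inhibition is background-corrected against DPPH-only control, with IC50 from curve fit. Runs were triplicate (mean ± SD), with ascorbic acid as positive control.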

[2] = system: Staphylococcus aureus ATCC 29213; test: Agar well diffusion, S. aureus; assay type: cell-based; conditions: ATCC29213, 100 μL of 10 mg/mL in DMSO, read-out: diameter of inhibition zone, SA
In short: (§1)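 Read-out: inhibition zone diameter in mm, mean of triplicate runs. Compound solution (10 mg/mL in DMSO, 100 μL) was loaded into 10 mm wells cut in seeded NA (bacteria, 1 × 10^8 CFU/mL) or SDA (yeast, 1 × 10^6 CFU/mL), then incubated 24 h at 37 °C.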

[3] = system: Bacillus subtilis ATCC 6633; test: Agar well diffusion, B. subtilis; assay type: cell-based; conditions: ATCC6633, 100 μL of 10 mg/mL in DMSO, read-out: diameter of inhibition zone, BS
In short: as §1

[4] = system: Bacillus megaterium ATCC 9885; test: Agar well diffusion, B. megaterium; assay type: cell-based; conditions: Priestia megaterium, ATCC9885, 100 μL of 10 mg/mL in DMSO, read-out: diameter of inhibition zone, BM
In short: as §1

[5] = system: Escherichia coli ATCC 2592; test: Agar well diffusion, E. coli; assay type: cell-based; conditions: ATCC2592, 100 μL of 10 mg/mL in DMSO, read-out: diameter of inhibition zone, EC
In short: as §1

[6] = system: Pseudomonas aeruginosa ATCC 27,953; test: Agar well diffusion, P. aeruginosa; assay type: cell-based; conditions: ATCC27, 100 μL of 10 mg/mL in DMSO, read-out: diameter of inhibition zone, PA
In short: as §1

[7] = system: Saccharomyces cerevisiae local isolate; test: Agar well diffusion, S. cerevisiae; assay type: cell-based; conditions: read-out: diameter of inhibition zone, SC
In short: as §1

[8] = system: Candida albicans NRRL Y-477; test: Agar well diffusion, C. albicans; assay type: cell-based; conditions: NRRLY477, 100 μL of 10 mg/mL in DMSO, read-out: diameter of inhibition zone, CA
In short: as §1

[9] = system: Bacillus subtilis ATCC 6633; test: MIC, two-fold serial dilution, B. subtilis; assay type: cell-based; conditions: ATCC6633, read-out: Minimum inhibitory concentration, BS
Description: (§2) The new molecules were individually tested for their antimicrobial activity in vitro against standard bacteria strains from the American Type Culture Collection (ATCC), namely, Staphylococcus aureus ATCC 29213, Bacillus subtilis ATCC 6633, Bacillus megaterium ATCC 9885 (Gram-positive), Escherichia coli ATCC 2592, and Pseudomonas aeruginosa ATCC 27,953 (Gram-negative). The compounds were also microbiologically tested against locally isolated Saccharomyces cerevisiae (yeast) and the standard Agricultural Research Service Culture Collection (NRRL) strain of the yeast-like pathogenic fungus Candida albicans NRRL Y-477. Primary screening was conducted using the agar well diffusion method using nutrient agar (NA) medium and Sabourand dextrose agar (SDA) medium for the tested pathological bacteria and yeast, respectively. […].
(§3) The bacteriostatic activity of the active compounds (having IZ > 16 mm) was then evaluated using the two-fold serial dilution technique. Two-fold serial dilutions of the tested compounds solutions were prepared using the proper nutrient broth to reach final concentrations of 1000, 500, 250, and 125 μg/mL. The tubes were then inoculated with the test microorganisms grown in their suitable broth at 37 °C for 24 h (1 × 10^8 CFU/mL for bacteria and 1 × 10^6 CFU/mL of yeast), 0.1 mL of the above inoculum was administered per 5 mL, and the tubes were incubated at 37 °C for 24 h. The lowest concentration showing no growth was taken as the MIC.

trypsin = test: Proteinase-inhibitory activity; assay type: biochemical; conditions: 250 µg/mL; mean ± SD (n = 3)
In short: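 Trypsin (0.06 mg per 2 mL, 20 mM Tris-HCl pH 7.4) was preincubated 5 min with test sample at 250 µg/mL, then 0.8% casein was added for 20 min. Perchloric acid stopped the reaction and supernatant absorbance was read at 280 nm. % inhibition is relative to the no-sample control, in triplicate.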

[10] = system: formaldehyde-induced rat paw oedema; test: Formaldehyde-induced rat paw oedema (prophylactic); assay type: in vivo; conditions: for paw volume reduced compared to positive control: 25 mg/kg orally
COX-1 = molecular target: T1, COX-1 (Homo sapiens, UniProt P23219); test: COX-1 inhibition, Cayman assay kit; assay type: biochemical; conditions: mean of two determinations
T1 construct: purchased Cayman Chemical 701070
T1 sequence (P23219 24-599): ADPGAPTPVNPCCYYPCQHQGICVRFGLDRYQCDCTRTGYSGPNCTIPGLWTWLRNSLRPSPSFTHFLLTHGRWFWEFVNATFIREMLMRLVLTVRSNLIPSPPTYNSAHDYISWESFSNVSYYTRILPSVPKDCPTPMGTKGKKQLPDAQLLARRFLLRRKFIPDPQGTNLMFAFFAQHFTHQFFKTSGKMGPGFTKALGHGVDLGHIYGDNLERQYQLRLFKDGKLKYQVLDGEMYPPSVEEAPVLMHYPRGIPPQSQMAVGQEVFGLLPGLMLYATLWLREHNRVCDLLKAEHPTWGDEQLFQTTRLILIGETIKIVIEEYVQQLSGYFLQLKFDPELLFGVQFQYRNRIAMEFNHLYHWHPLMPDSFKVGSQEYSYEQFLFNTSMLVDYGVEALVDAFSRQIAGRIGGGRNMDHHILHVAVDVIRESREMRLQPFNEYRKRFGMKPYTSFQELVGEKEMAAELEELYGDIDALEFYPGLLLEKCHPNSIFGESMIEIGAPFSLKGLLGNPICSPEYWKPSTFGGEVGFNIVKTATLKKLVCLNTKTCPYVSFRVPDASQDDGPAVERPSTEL

COX-2 = molecular target: T2, COX-2 (Homo sapiens, UniProt P35354); test: COX-2 inhibition, Cayman assay kit; assay type: biochemical; conditions: for IC50: mean of two determinations; for SI, selectivity index (COX-1/COX-2): ratio of COX-1/COX-2 IC50
T2 construct: purchased Cayman Chemical 701080
T2 sequence (P35354 18-604): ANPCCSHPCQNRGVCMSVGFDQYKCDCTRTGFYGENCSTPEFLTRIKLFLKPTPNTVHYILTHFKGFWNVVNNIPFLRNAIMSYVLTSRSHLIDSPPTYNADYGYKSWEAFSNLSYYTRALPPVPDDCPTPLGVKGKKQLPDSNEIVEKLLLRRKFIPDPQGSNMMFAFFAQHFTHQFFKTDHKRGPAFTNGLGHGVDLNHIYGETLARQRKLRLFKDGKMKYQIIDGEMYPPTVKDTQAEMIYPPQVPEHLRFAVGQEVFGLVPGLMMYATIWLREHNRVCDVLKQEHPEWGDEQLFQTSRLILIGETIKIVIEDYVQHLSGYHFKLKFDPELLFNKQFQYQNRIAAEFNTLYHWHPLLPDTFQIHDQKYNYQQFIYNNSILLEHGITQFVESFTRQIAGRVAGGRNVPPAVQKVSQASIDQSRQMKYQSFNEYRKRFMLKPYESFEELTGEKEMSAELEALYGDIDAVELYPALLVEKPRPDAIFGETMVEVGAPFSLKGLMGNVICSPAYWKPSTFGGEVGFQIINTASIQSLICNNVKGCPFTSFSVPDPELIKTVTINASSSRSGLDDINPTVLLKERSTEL

[11] = system: Staphylococcus aureus ATCC 29213; test: MIC, two-fold serial dilution, S. aureus; assay type: cell-based; conditions: ATCC29213, read-out: Minimum inhibitory concentration, SA
Description: as §2, §3

[12] = system: Bacillus megaterium ATCC 9885; test: MIC, two-fold serial dilution, B. megaterium; assay type: cell-based; conditions: Priestia megaterium, ATCC9885, read-out: Minimum inhibitory concentration, BM
Description: as §2, §3

[13] = system: Escherichia coli ATCC 2592; test: MIC, two-fold serial dilution, E. coli; assay type: cell-based; conditions: ATCC2592, read-out: Minimum inhibitory concentration, EC
Description: as §2, §3

[14] = system: Pseudomonas aeruginosa ATCC 27,953; test: MIC, two-fold serial dilution, P. aeruginosa; assay type: cell-based; conditions: ATCC27, read-out: Minimum inhibitory concentration, PA
Description: as §2, §3

[15] = system: Saccharomyces cerevisiae local isolate; test: MIC, two-fold serial dilution, S. cerevisiae; assay type: cell-based; conditions: read-out: Minimum inhibitory concentration, SC
In short: (§4)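 Compounds with agar-well inhibition zone >16 mm went on to two-fold broth dilution at final 1000, 500, 250 and 125 μg/mL. Inocula were 1×10^8 CFU/mL for bacteria and 1×10^6 CFU/mL for yeast (0.1 mL per 5 mL), incubated 37 °C for 24 h. MIC taken as the lowest concentration with no growth.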

[16] = system: Candida albicans NRRL Y-477; test: MIC, two-fold serial dilution, C. albicans; assay type: cell-based; conditions: NRRLY477, read-out: Minimum inhibitory concentration, CA
In short: as §4

tested microorganisms [17] = test: MIC, summary over the tested microorganisms; assay type: cell-based; conditions: two-fold serial dilution; read-out: MIC against most tested microorganisms
Description: as §2, §3

tested microorganisms [18] = test: Agar well diffusion, summary over the tested microorganisms; assay type: cell-based; conditions: all tested microorganisms
Description: as §2
Antimicrobial tests were conducted via the agar well diffusion method using 100 μL of suspension containing 1 × 10^8 CFU/mL pathological tested bacteria and 1 × 10^6 CFU/mL yeast spread on NA and SDA, respectively. […] After incubation, antimicrobial activity was evaluated by measuring the zone of inhibition against the test organisms and compared with that of the standard. Antimicrobial activities were expressed as the diameter of the inhibition zone (IZ) in mm. The experiment was carried out in triplicate and the average zone of inhibition was calculated.

## Cc1ccc2oc(=O)c3c(c2c1)OC(N)=C(C(N)=O)C3c1ccc([N+](=O)[O-])cc1 (racemic) [3a, (±)-2-Amino-9-methyl-4-(4-nitrophenyl)-5-oxo-4H,5H-pyrano[3,2-c]chromene-3-carboxamide]
[1]
  IC50: — ((—): inactive (IC50 > 200 μg/mL))
[2]
  zone of inhibition at 10000 µg/mL: < 15 mm
[3]
  zone of inhibition at 10000 µg/mL: 18 mm
[4]
  zone of inhibition at 10000 µg/mL: 16 mm
[5]
  zone of inhibition at 10000 µg/mL: 16 mm
[6]
  zone of inhibition at 10000 µg/mL: 15 mm
[7]
  zone of inhibition at 10000 µg/mL: < 15 mm
[8]
  zone of inhibition at 10000 µg/mL: < 15 mm
[9]
  MIC: 1000 µg/mL (≈ 2540 µM)
trypsin
  % Inhibition (proteinase): 79.72 ± 4.51%
[10]; 2.5 mg/kg orally, 1 h after inducing inflammation
  % inhibition of paw oedema: 29.2%
COX-1
  IC50: 183 µM
COX-2
  IC50: 9.81 µM
  SI, selectivity index (COX-1/COX-2): 18.68
other
  melting point: 142 to 144 °C

## Cc1ccc2oc(=O)c3c(c2c1)OC(/N=C/c1ccccc1)=C(C#N)C3c1ccc([N+](=O)[O-])cc1 (racemic) [5a, (±)-2-(benzylideneamino)-9-methyl-4-(4-nitrophenyl)-5-oxo-4H,5H-pyrano[3,2-c]chromene-3-carbonitrile]
[1]
  IC50: — ((—): inactive (IC50 > 200 μg/mL))
[2]
  zone of inhibition at 10000 µg/mL: 25 mm
[3]
  zone of inhibition at 10000 µg/mL: 27 mm
[4]
  zone of inhibition at 10000 µg/mL: 22 mm
[5]
  zone of inhibition at 10000 µg/mL: 26 mm
[6]
  zone of inhibition at 10000 µg/mL: 24 mm
[7]
  zone of inhibition at 10000 µg/mL: 26 mm
[8]
  zone of inhibition at 10000 µg/mL: 25 mm
[11]
  MIC: 250 µg/mL (≈ 539 µM)
[9]
  MIC: 250 µg/mL (≈ 539 µM)
[12]
  MIC: 500 µg/mL (≈ 1080 µM)
[13]
  MIC: 250 µg/mL (≈ 539 µM)
[14]
  MIC: 500 µg/mL (≈ 1080 µM)
[15]
  MIC: 500 µg/mL (≈ 1080 µM)
[16]
  MIC: 500 µg/mL (≈ 1080 µM)
COX-1
  IC50: 1130 µM
COX-2
  IC50: 7.41 µM
  SI, selectivity index (COX-1/COX-2): 152 and 152.02
Tested microorganisms [17]
  MIC: 250 to 500 µg/mL (≈ 539 to 1080 µM)
other
  melting point: 208 to 209 °C

## Cc1ccc2oc(=O)c(S(=O)(=O)Nc3ccc(S(N)(=O)=O)cc3)c(O)c2c1 [7b, 4-Hydroxy-6-methyl-2-oxo-N-(4-sulfamoylphenyl)-2H-chromene-3-sulfonamide]
[1]
  IC50: 61.78 ± 2.719 µg/mL (≈ 151 µM)
[2]
  zone of inhibition at 10000 µg/mL: < 15 mm
[3]
  zone of inhibition at 10000 µg/mL: < 15 mm
[4]
  zone of inhibition at 10000 µg/mL: < 15 mm
[5]
  zone of inhibition at 10000 µg/mL: < 15 mm
[6]
  zone of inhibition at 10000 µg/mL: < 15 mm
[7]; well diffusion, 100 μL of 10 mg/mL in DMSO, S. cerevisiae
  zone of inhibition at 10000 µg/mL: < 15 mm
[8]
  zone of inhibition at 10000 µg/mL: < 15 mm
trypsin
  % Inhibition (proteinase): 5.93 ± 2.11%
COX-1
  IC50: 47.6 µM
COX-2
  IC50: 8.24 µM
  SI, selectivity index (COX-1/COX-2): 5.78
Tested microorganisms [18]
  IZ against the tested microorganisms: < 15 mm
other
  melting point: 241 to 243 °C

## COc1ccc2c(c1)c(CC(=O)O)c(C)n2C(=O)c1ccc(Cl)cc1 [Indomethacin, reference compound]
[10]; 1 h after formaldehyde
  paw volume reduced compared to positive control: 72.09%
[10]; 2 h after formaldehyde
  paw volume reduced compared to positive control: 74.79%
[10]; 3 h after formaldehyde
  paw volume reduced compared to positive control: 71.5%

From PMC7397269, “Synthesis and Evaluation of New Coumarin Derivatives as Antioxidant, Antimicrobial, and Anti-Inflammatory Agents” (Molecules, 2020)
